Measured values taken from ChEMBL document CHEMBL1123635, “Angiotensin-converting enzyme inhibitors: perhydro-1,4-thiazepin-5-one derivatives” (J Med Chem, 1987).

Each compound was assayed against T1, Angiotensin-converting enzyme (Oryctolagus cuniculus, UniProt P12822) (assay: Inhibitory activity against rabbit lung Angiotensin I converting enzyme with 5 mM hippuryl-histidyl-leucine as substrate).
T1 sequence (P12822 whole entry): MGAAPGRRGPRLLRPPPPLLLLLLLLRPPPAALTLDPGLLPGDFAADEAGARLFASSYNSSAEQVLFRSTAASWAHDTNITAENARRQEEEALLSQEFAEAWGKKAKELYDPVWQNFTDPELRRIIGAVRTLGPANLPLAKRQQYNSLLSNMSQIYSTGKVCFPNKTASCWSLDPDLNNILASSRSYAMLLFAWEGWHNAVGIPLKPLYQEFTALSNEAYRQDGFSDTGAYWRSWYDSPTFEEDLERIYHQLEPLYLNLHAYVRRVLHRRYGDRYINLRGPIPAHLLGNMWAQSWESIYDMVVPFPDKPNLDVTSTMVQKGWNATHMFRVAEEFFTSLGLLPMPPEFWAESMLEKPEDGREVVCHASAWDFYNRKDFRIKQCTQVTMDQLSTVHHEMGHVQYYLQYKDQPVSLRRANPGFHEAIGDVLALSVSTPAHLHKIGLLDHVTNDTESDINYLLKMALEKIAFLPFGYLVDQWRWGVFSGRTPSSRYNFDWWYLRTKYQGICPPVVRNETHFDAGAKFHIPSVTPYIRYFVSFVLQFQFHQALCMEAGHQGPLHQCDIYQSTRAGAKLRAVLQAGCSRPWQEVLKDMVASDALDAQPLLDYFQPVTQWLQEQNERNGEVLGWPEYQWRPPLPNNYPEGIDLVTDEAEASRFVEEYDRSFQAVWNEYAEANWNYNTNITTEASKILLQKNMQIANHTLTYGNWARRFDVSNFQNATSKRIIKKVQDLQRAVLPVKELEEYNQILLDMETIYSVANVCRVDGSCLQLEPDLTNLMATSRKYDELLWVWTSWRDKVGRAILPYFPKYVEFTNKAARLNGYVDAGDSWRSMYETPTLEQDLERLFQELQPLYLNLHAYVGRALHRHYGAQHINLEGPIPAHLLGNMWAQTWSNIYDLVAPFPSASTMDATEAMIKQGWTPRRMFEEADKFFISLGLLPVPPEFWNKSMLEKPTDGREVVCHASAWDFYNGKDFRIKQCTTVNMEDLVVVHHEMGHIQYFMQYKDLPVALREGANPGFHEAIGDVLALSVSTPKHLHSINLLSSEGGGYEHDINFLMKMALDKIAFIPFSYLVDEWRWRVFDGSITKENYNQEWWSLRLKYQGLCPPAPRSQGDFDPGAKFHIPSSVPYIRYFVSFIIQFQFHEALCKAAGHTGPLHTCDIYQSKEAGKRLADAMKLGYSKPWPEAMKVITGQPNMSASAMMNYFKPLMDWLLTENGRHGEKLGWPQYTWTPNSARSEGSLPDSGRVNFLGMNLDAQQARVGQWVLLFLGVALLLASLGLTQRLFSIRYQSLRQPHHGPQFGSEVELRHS

Row | Structure (SMILES) | IC50 [nM]
1 | O=C(O)CN1C(=O)[C@@H](N[C@@H](CCc2ccccc2)C(=O)O)CSC[C@@H]1c1ccccc1 | 78.2
2 | O=C(O)CN1C[C@H](c2ccsc2)SC[C@H](N[C@@H](CCc2ccccc2)C(=O)O)C1=O | 86.9
3 | O=C(O)CN1C(=O)[C@@H](N[C@@H](CCc2ccccc2)C(=O)O)CSC[C@H]1c1ccccc1 | 3.4
4 | O=C(O)CN1C[C@@H](c2cccs2)SC[C@H](N[C@@H](CCc2ccccc2)C(=O)O)C1=O [TEMOCAPRILAT] | 3.6
5 | O=C(O)CN1C[C@H](c2cccs2)SC[C@H](N[C@@H](CCc2ccccc2)C(=O)O)C1=O | 64.7
6 | O=C(O)CN1C(=O)[C@@H](N[C@@H](CCc2ccccc2)C(=O)O)CSCC1c1cccs1 (some centres undefined) | 2.8
7 | O=C(O)CN1C[C@H](c2ccccc2)SC[C@H](N[C@@H](CCc2ccccc2)C(=O)O)C1=O | 35.5
8 | O=C(O)CN1C[C@@H](c2ccccc2)SC[C@H](N[C@@H](CCc2ccccc2)C(=O)O)C1=O | 3.7
9 | O=C(O)CN1C[C@@H](c2ccsc2)SC[C@H](N[C@@H](CCc2ccccc2)C(=O)O)C1=O | 4.1
